Assays:
mouse [1] = conditions: Carcinogenicity, b6c3f1, Oral, Gavage/Intubation, dose end: 103 week, group: systemic
rat [2] = conditions: Combined chronic toxicity/carcinogenicity; fischer; Oral; Gavage/Intubation; dose end: 103 week; group: systemic; systemic / in life observation / clinical signs / lethargy + systemic / pathology microscopic / stomach / inflammation + systemic / …
rat [3] = conditions: Multigenerational reproductive toxicity study, sprague dawley, Oral, Feed, dose end: 2 generation
rat [4] = conditions: Sub-acute repeat dose toxicity; fischer; Oral; Gavage/Intubation; dose end: 16 day; group: systemic; systemic / in life observation / body weight / body weight gain
mouse [5] = conditions: Sub-acute repeat dose toxicity, b6c3f1, Oral, Gavage/Intubation, dose end: 16 day, group: systemic
rat [6] = conditions: Subchronic oral toxicity in rodents, fischer, Gavage/Intubation, dose end: 13 week, group: systemic
mouse [7] = conditions: Subchronic oral toxicity in rodents, b6c3f1, Gavage/Intubation, dose end: 13 week, group: systemic
rat [8] = conditions: Prenatal developmental toxicity study, wistar, Oral, Gavage/Intubation, dose end: 15 GD
rat [9] = conditions: Combined chronic toxicity/carcinogenicity, sprague dawley, Oral, Feed, dose end: 28 month
mouse [10] = conditions: Subchronic oral toxicity in rodents, cd1, Feed, dose end: 3 month, group: systemic
rat [11] = conditions: Multigenerational reproductive toxicity study, sprague dawley, Oral, Feed, dose end: 2 generation; remark: listed apart in the source
rat [12] = conditions: Subchronic oral toxicity in rodents, sprague dawley, Feed, dose end: 3 month
dog [13] = conditions: Chronic toxicity, beagle, Oral, Feed, dose end: 12 month
dog [14] = conditions: Subchronic oral toxicity in nonrodent, beagle, Feed, dose end: 13 week
dog [15] = conditions: Subchronic oral toxicity in nonrodent, beagle, Feed, dose end: 90 day
mouse [16] = conditions: Combined chronic toxicity/carcinogenicity, b6c3f1, Oral, Feed, dose end: 2 year
[17] = systemic / in life observation / clinical signs / lethargy + systemic / in life observation / body weight / body weight
[18] = systemic / in life observation / clinical signs / lethargy + systemic / in life observation / body weight / body weight + systemic / …
[19] = group: offspring, systemic / in life observation / body weight / offspring (pup) weight
[20] = group: parental, systemic / in life observation / body weight / body weight + systemic / in life observation / body weight / body weight gain + systemic / …
[21] = group: parental, systemic / organ weight / kidney / relative to body weight
[22] = systemic / in life observation / clinical signs / lethargy + systemic / in life observation / mortality / mortality
[23] = systemic / organ weight / liver / absolute + systemic / organ weight / liver / relative to body weight
[24] = systemic / in life observation / clinical signs / fur (altered appearance) + systemic / in life observation / clinical signs / lethargy
[25] = systemic / in life observation / clinical signs / fur (altered appearance) + systemic / in life observation / clinical signs / lethargy + …
[26] = group: cholinesterase, cholinesterase / cholinesterase / cholinesterase / brain cholinesterase (che) + cholinesterase / cholinesterase / cholinesterase / …
[27] = group: developmental, systemic / in life observation / body weight / fetal weight + developmental / developmental malformation / bone / delayed ossification + …
[28] = group: maternal, reproductive / reproductive performance / postimplantation loss / postimplantation loss + reproductive / reproductive performance / …
[29] = group: cholinesterase, cholinesterase / cholinesterase / cholinesterase / erythrocyte cholinesterase (che)
[30] = group: systemic, systemic / hematology / erythrocyte (rbc) count differential / erythrocyte (rbc) + systemic / hematology / hematocrit (hct) / hematocrit (…
[31] = systemic / in life observation / body weight / body weight + systemic / organ weight / brain / relative to body weight + systemic / organ …
[32] = group: offspring, developmental / offspring survival late / viability index / viability index
[33] = group: parental, systemic / in life observation / body weight / body weight gain
[34] = group: cholinesterase, cholinesterase / cholinesterase / cholinesterase / erythrocyte cholinesterase (che) + cholinesterase / cholinesterase / cholinesterase / …
[35] = group: systemic, systemic / clinical chemistry / albumin-globulin ratio / albumin-globulin ratio
[36] = group: systemic, systemic / hematology / hemoglobin (hgb) / hemoglobin (hgb) + systemic / pathology microscopic / stomach / acanthosis + systemic / pathology…
[37] = group: systemic, systemic / organ weight / liver / absolute
[38] = group: cholinesterase, cholinesterase / cholinesterase / cholinesterase / plasma cholinesterase (che) + cholinesterase / cholinesterase / cholinesterase / …
[39] = group: systemic, systemic / in life observation / body weight / body weight gain + systemic / in life observation / clinical signs / emaciation + systemic / …
[40] = group: systemic, systemic / in life observation / clinical signs / pulse/pressure
[41] = group: systemic, systemic / clinical chemistry / cholesterol / cholesterol
[42] = group: systemic, systemic / clinical chemistry / cholesterol / cholesterol + systemic / in life observation / body weight / body weight + systemic / in life …

## S=c1[nH]c2ccccc2s1 [2-Mercaptobenzothiazole]
Mouse [1]; [17]
  LOAEL: 375 mg/kg/day
  NOAEL: < 375 mg/kg/day
Mouse [1]; [18]
  LEL: 375 mg/kg/day
  NEL: < 375 mg/kg/day
Rat [2]
  LEL: 188 mg/kg/day
  LOAEL: 188 mg/kg/day
  NEL: < 188 mg/kg/day
  NOAEL: < 188 mg/kg/day
Rat [3]; [19]
  LEL: 194 mg/kg/day
  LOAEL: 194 mg/kg/day
  NEL: < 194 mg/kg/day
  NOAEL: < 194 mg/kg/day
Rat [3]; [20]
  LOAEL: 695 mg/kg/day
  NOAEL: 194 mg/kg/day
Rat [3]; [21]
  LEL: 218 mg/kg/day
  NEL: < 218 mg/kg/day
Rat [4]
  LEL: 2500 mg/kg/day
  LOAEL: > 2500 mg/kg/day
  NEL: 1250 mg/kg/day
  NOAEL: ≥ 2500 mg/kg/day
Mouse [5]; systemic / in life observation / clinical signs / lethargy
  LOAEL: 1500 mg/kg/day
Mouse [5]; [22]
  LEL: 1500 mg/kg/day
  NEL: 750 mg/kg/day
  NOAEL: 750 mg/kg/day
Rat [6]; systemic / in life observation / body weight / body weight gain + systemic / in life observation / clinical signs / irritability
  LOAEL: 750 mg/kg/day
Rat [6]; [23]
  LEL: 188 mg/kg/day
  NEL: < 188 mg/kg/day
Rat [6]; systemic / organ weight / liver / absolute + systemic / organ weight / liver / relative to body weight + systemic / in life observation / …
  NOAEL: 375 mg/kg/day
Mouse [7]; [24]
  LEL: 375 mg/kg/day
  LOAEL: 375 mg/kg/day
Mouse [7]; [25]
  NEL: 188 mg/kg/day
  NOAEL: 188 mg/kg/day

## COP(=S)(OC)Oc1ccc([N+](=O)[O-])cc1 [Methyl parathion]
Rat [8]; [26]
  LEL: 3 mg/kg/day
  LOAEL: > 3 mg/kg/day
  NOAEL: ≥ 3 mg/kg/day
Rat [8]; group: developmental, systemic / in life observation / body weight / fetal weight
  LOAEL: 3 mg/kg/day
Rat [8]; [27]
  LEL: 3 mg/kg/day
  NEL: 1 mg/kg/day
  NOAEL: 1 mg/kg/day
Rat [8]; [28]
  LEL: 3 mg/kg/day
  LOAEL: 3 mg/kg/day
  NEL: 1 mg/kg/day
  NOAEL: 1 mg/kg/day
Rat [9]; [26]
  LOAEL: > 2.21 mg/kg/day
  NEL: 0.02 mg/kg/day
  NOAEL: ≥ 2.21 mg/kg/day
Rat [9]; [29]
  LEL: 0.21 mg/kg/day
Rat [9]; [30]
  LEL: 0.21 mg/kg/day
  LOAEL: 0.21 mg/kg/day
  NEL: 0.02 mg/kg/day
  NOAEL: 0.02 mg/kg/day
Mouse [10]; systemic / in life observation / body weight / body weight
  LOAEL: 13.5 mg/kg/day
Mouse [10]; [31]
  LEL: 13.5 mg/kg/day
  NEL: 6.5 mg/kg/day
  NOAEL: 6.5 mg/kg/day
Rat [11]; [32]
  LEL: 2 mg/kg/day
  LOAEL: 2 mg/kg/day
  NEL: 0.38 mg/kg/day
  NOAEL: 0.38 mg/kg/day
Rat [11]; [33]
  LOAEL: 2.3 mg/kg/day
  NEL: 0.44 mg/kg/day
  NOAEL: 0.44 mg/kg/day
Rat [11]; group: parental, systemic / in life observation / body weight / body weight gain + systemic / in life observation / body weight / body weight
  LEL: 2.3 mg/kg/day
Rat [12]; [29]
  LEL: 1.24 mg/kg/day
  LOAEL: 1.24 mg/kg/day
Rat [12]; [34]
  NEL: 0.12 mg/kg/day
  NOAEL: 0.12 mg/kg/day
Rat [12]; [35]
  LEL: 0.16 mg/kg/day
  NEL: < 0.16 mg/kg/day
Rat [12]; [36]
  LOAEL: 1.24 mg/kg/day
  NOAEL: 0.12 mg/kg/day
Dog [13]; [34]
  LEL: 0.03 mg/kg/day
  LOAEL: 0.03 mg/kg/day
  NEL: < 0.03 mg/kg/day
  NOAEL: < 0.03 mg/kg/day
Dog [13]; [37]
  LEL: 0.3 mg/kg/day
  LOAEL: > 0.3 mg/kg/day
  NEL: 0.1 mg/kg/day
  NOAEL: ≥ 0.3 mg/kg/day
Dog [14]; [38]
  LEL: 3 mg/kg/day
  LOAEL: 3 mg/kg/day
  NEL: 0.3 mg/kg/day
  NOAEL: 0.3 mg/kg/day
Dog [14]; group: systemic, systemic / in life observation / body weight / body weight gain
  LOAEL: 3 mg/kg/day
Dog [14]; [39]
  LEL: 3 mg/kg/day
  NOAEL: 0.3 mg/kg/day
Dog [14]; group: systemic, systemic / in life observation / clinical signs / emaciation + systemic / in life observation / clinical signs / dehydration + systemic / in…
  NEL: 0.3 mg/kg/day
Dog [15]; [34]
  LEL: 1 mg/kg/day
  LOAEL: 1 mg/kg/day
  NEL: 0.3 mg/kg/day
  NOAEL: 0.3 mg/kg/day
Dog [15]; [40]
  LEL: 3 mg/kg/day
  LOAEL: 3 mg/kg/day
  NEL: 1 mg/kg/day
  NOAEL: 1 mg/kg/day
Mouse [16]; [26]
  LEL: 1.6 mg/kg/day
  LOAEL: 1.6 mg/kg/day
  NEL: 0.2 mg/kg/day
  NOAEL: 0.2 mg/kg/day
Mouse [16]; [41]
  LEL: 2.1 mg/kg/day
  LOAEL: 2.1 mg/kg/day
Mouse [16]; [42]
  NEL: 0.3 mg/kg/day
  NOAEL: 0.3 mg/kg/day

From EPA's ToxRefDB 2
